From patent US20030207813A1, “Retroviral protease inhibitor combinations” (priority 1995, published 2003)

Assays:
NL4(538/524) = test: Viral isolate resistance assay per Markowitz et al., NL4(538/524); type: cell-based, HIV-1; conditions: Human immunodeficiency virus 1; Table 10; NL4(P22-538) selected against Example 5, 24 passages
Excerpt: (§1) RF represents the HIV-1 strain HIV-LRF and RFR represents a mixture of resistant strains obtained by selection of RF against the compound of Example 1. RFR comprises a mixture of viral strains having protease genotypes of G48V (14/40 clones); G48V, V82A (18/40 clones); G48V, L90S (2/40 clones); G48V, 154T, V82A (1/40 clones); G48M (1/40 clones); G48V, Q61H (1/40 clones); V13I, G48V (1/40 clones); G48V, F53L, V82A (1/40 clones); and G48V, V82A, C95Y (1/40 clones). RFR2 represents a mixture of resistant strains obtained by cloning RFR by three rounds of growth at limiting dilution. RFR2 comprises a mixture of viral strains having protease genotypes of G48V, V82A (13/15 clones); G17E, G48V, V82A (1/15 clones); and G48V, V82A, N37D, N88D (1/15 clones). RFRR represents a mixture of resistant strains obtained by selection of RF against the compounds of Examples 1 and 2 and then cloning by three rounds of growth at limiting dilution. RFRR comprises a mixture of viral strains having protease genotypes of G48V, 154T, L63P, V82A (7/9 clones); G48V, 154T, L63P, V82A, N88S (1/9 clones); and G48V, 154T, L63P, G73M, V82A (1/9 clones). SF162 represents the HIV-1 strain SF-162 and SF162R represents a mixture of resistant strains obtained by selection of SF162 against the compound of Example 1. SF162R comprises a mixture of viral strains having protease genotypes of M461, F53L, L63P, A71V, N88D (2/3 clones); and M46I, F53L, L63P, A71V, N88D, Q92R (1/3 clones). 89-959 represents the HIV-1 strain 89-959 and 89-959R represents a mixture of resistant strains obtained by selection of 89-959 against the compound of Example 2. 89-959R comprises a mixture of viral strains having protease genotypes of N88S (4/5 clones); and D25N, T26A, D30N, D37N, R41K, G73D, R87K, N88S (1/4 clones). NL4 represents the HIV-1 strain HIV-1NL4-3. NL4(G48V) represents a strain having a synthetically generated site-directed mutation in the protease from glycine to valine at amino acid position number 48. NL4(I84V) represents a strain having a synthetically generated site-directed mutation in the protease from isoleucine to valine at amino acid position number 84. NL4(R8Q,M46I) represents a strain having synthetically generated site-directed mutations in the protease from arginine to glutamine at amino acid position number 8 and methionine to isoleucine at amino acid position number 46. NL4(P22-538) represents a mixture of resistant strains obtained by selection of HIV-1NL4-3 against the compound of Example 10 after 22 passages comprising protease genotypes M46I, L63P, A71V, V82F, I84V (4/10); M46I, L63P, V82F, I84V (3/10); and M46I, A71V, V82F, I84V (3/10). NL4(P37-538) represents resistant strains obtained by selection of HIV-1NL4-3 against the compound of Example 10 after 37 passages comprising protease genotype M46I, L63P, A71V, 184A. NL4(538/524) represents resistant strains obtained by selection of NL4(P22-538) against the compound of Example 5 after 24 passages comprising protease genotype M46I, L63P, A71V, 184A. NL4(538/P7-AG) represents a mixture of resistant strains obtained by selection of NL4(P22-538) against the compound of Example 12 after 7 passages comprising protease genotypes M46I, L63P, A71V, 184A; and V321, V82I. NL4(538/P24-AG) represents resistant strains obtained by selection of NL4(P22-538) against the compound of Example 12 after 24 passages comprising protease genotype M46I, L63P, A71V, 184A. […]

NL4(G48V) = test: Viral isolate resistance assay per Markowitz et al., NL4(G48V); type: cell-based, HIV-1; conditions: Human immunodeficiency virus 1, Table 7
Excerpt: (§2) RF represents the HIV-1 strain HIV-LRF and RFR represents a mixture of resistant strains obtained by selection of RF against the compound of Example 1. […] RFR2 represents a mixture of resistant strains obtained by cloning RFR by three rounds of growth at limiting dilution. […] RFRR represents a mixture of resistant strains obtained by selection of RF against the compounds of Examples 1 and 2 and then cloning by three rounds of growth at limiting dilution. […] SF162 represents the HIV-1 strain SF-162 and SF162R represents a mixture of resistant strains obtained by selection of SF162 against the compound of Example 1. […] 89-959 represents the HIV-1 strain 89-959 and 89-959R represents a mixture of resistant strains obtained by selection of 89-959 against the compound of Example 2. […] NL4 represents the HIV-1 strain HIV-1NL4-3. NL4(G48V) represents a strain having a synthetically generated site-directed mutation in the protease from glycine to valine at amino acid position number 48. NL4(I84V) represents a strain having a synthetically generated site-directed mutation in the protease from isoleucine to valine at amino acid position number 84. NL4(R8Q,M46I) represents a strain having synthetically generated site-directed mutations in the protease from arginine to glutamine at amino acid position number 8 and methionine to isoleucine at amino acid position number 46.

NL4(I84V) = test: Viral isolate resistance assay per Markowitz et al., NL4(I84V); type: cell-based, HIV-1; conditions: Human immunodeficiency virus 1, Table 7
Excerpt: as §2

NL4(P34-003) = test: Viral isolate resistance assay per Markowitz et al., NL4(P34-003); type: cell-based, HIV-1; conditions: Human immunodeficiency virus 1; Table 11; selected against Example 9, 34 passages
Excerpt: (§3) RF represents the HIV-1 strain HIV-LRF and RFR represents a mixture of resistant strains obtained by selection of RF against the compound of Example 1. RFR comprises a mixture of viral strains having protease genotypes of G48V (14/40 clones); G48V, V82A (18/40 clones); G48V, L90S (2/40 clones); G48V, 154T, V82A (1/40 clones); G48M (1/40 clones); G48V, Q61H (1/40 clones); V13I, G48V (1/40 clones); G48V, F53L, V82A (1/40 clones); and G48V, V82A, C95Y (1/40 clones). RFR2 represents a mixture of resistant strains obtained by cloning RFR by three rounds of growth at limiting dilution. RFR2 comprises a mixture of viral strains having protease genotypes of G48V, V82A (13/15 clones); G17E, G48V, V82A (1/15 clones); and G48V, V82A, N37D, N88D (1/15 clones). RFRR represents a mixture of resistant strains obtained by selection of RF against the compounds of Examples 1 and 2 and then cloning by three rounds of growth at limiting dilution. RFRR comprises a mixture of viral strains having protease genotypes of G48V, 154T, L63P, V82A (7/9 clones); G48V, 154T, L63P, V82A, N88S (1/9 clones); and G48V, 154T, L63P, G73M, V82A (1/9 clones). SF162 represents the HIV-1 strain SF-162 and SF162R represents a mixture of resistant strains obtained by selection of SF162 against the compound of Example 1. SF162R comprises a mixture of viral strains having protease genotypes of M461, F53L, L63P, A71V, N88D (2/3 clones); and M46I, F53L, L63P, A71V, N88D, Q92R (1/3 clones). 89-959 represents the HIV-1 strain 89-959 and 89-959R represents a mixture of resistant strains obtained by selection of 89-959 against the compound of Example 2. 89-959R comprises a mixture of viral strains having protease genotypes of N88S (4/5 clones); and D25N, T26A, D30N, D37N, R41K, G73D, R87K, N88S (1/4 clones). NL4 represents the HIV-1 strain HIV-1NL4-3. NL4(G48V) represents a strain having a synthetically generated site-directed mutation in the protease from glycine to valine at amino acid position number 48. […]

NL4(P22-538) = test: Viral isolate resistance assay per Markowitz et al., NL4(P22-538); type: cell-based, HIV-1; conditions: Human immunodeficiency virus 1; Table 9; selected against Example 10, 22 passages; read-out: Virus Isolate (EC50 nM) NL4(P22-538)
Excerpt: as §1

HIV-1NL4-3 = test: microbe, parasite or virus in culture; type: cell-based; conditions: Human immunodeficiency virus 1, NL4
Excerpt: as §2

NL4(R8Q,M46I) = test: Viral isolate resistance assay per Markowitz et al., NL4(R8Q,M46I); type: cell-based, HIV-1; conditions: Human immunodeficiency virus 1, read-out: Virus Isolate (EC50 nM) NL4(R8O, M46I)
Excerpt: as §3

NLA(P19-003) = test: Viral isolate resistance assay per Markowitz et al., NLA(P19-003); type: cell-based, HIV-1; conditions: Human immunodeficiency virus 1, read-out: Virus Isolate (EC50 nM) NLA(P19-003)
Excerpt: as §3

NL4(538/P7-AG) = test: Viral isolate resistance assay per Markowitz et al., NL4(538/P7-AG); type: cell-based, HIV-1; conditions: Human immunodeficiency virus 1; Table 10; NL4(P22-538) selected against Example 12, 7 passages
Excerpt: as §1

NL4(538/P24-AG) = test: Viral isolate resistance assay per Markowitz et al., NL4(538/P24-AG); type: cell-based, HIV-1; conditions: Human immunodeficiency virus 1; Table 10; NL4(P22-538) selected against Example 12, 24 passages
Excerpt: as §1

NL4(P37-538) = test: Viral isolate resistance assay per Markowitz et al., NL4(P37-538); type: cell-based, HIV-1; conditions: Human immunodeficiency virus 1; Table 9; selected against Example 10, 37 passages; read-out: Virus Isolate (EC50 nM) NL4(P37-538)
Excerpt: RF represents the HIV-1 strain HIV-LRF and RFR represents a mixture of resistant strains obtained by selection of RF against the compound of Example 1. RFR comprises a mixture of viral strains having protease genotypes of G48V (14/40 clones); G48V, V82A (18/40 clones); G48V, L90S (2/40 clones); G48V, 154T, V82A (1/40 clones); G48M (1/40 clones); G48V, Q61H (1/40 clones); V13I, G48V (1/40 clones); G48V, F53L, V82A (1/40 clones); and G48V, V82A, C95Y (1/40 clones). RFR2 represents a mixture of resistant strains obtained by cloning RFR by three rounds of growth at limiting dilution. RFR2 comprises a mixture of viral strains having protease genotypes of G48V, V82A (13/15 clones); G17E, G48V, V82A (1/15 clones); and G48V, V82A, N37D, N88D (1/15 clones). RFRR represents a mixture of resistant strains obtained by selection of RF against the compounds of Examples 1 and 2 and then cloning by three rounds of growth at limiting dilution. RFRR comprises a mixture of viral strains having protease genotypes of G48V, 154T, L63P, V82A (7/9 clones); G48V, 154T, L63P, V82A, N88S (1/9 clones); and G48V, 154T, L63P, G73M, V82A (1/9 clones). SF162 represents the HIV-1 strain SF-162 and SF162R represents a mixture of resistant strains obtained by selection of SF162 against the compound of Example 1. SF162R comprises a mixture of viral strains having protease genotypes of M461, F53L, L63P, A71V, N88D (2/3 clones); and M46I, F53L, L63P, A71V, N88D, Q92R (1/3 clones). 89-959 represents the HIV-1 strain 89-959 and 89-959R represents a mixture of resistant strains obtained by selection of 89-959 against the compound of Example 2. 89-959R comprises a mixture of viral strains having protease genotypes of N88S (4/5 clones); and D25N, T26A, D30N, D37N, R41K, G73D, R87K, N88S (1/4 clones). NL4 represents the HIV-1 strain HIV-1NL4-3. NL4(G48V) represents a strain having a synthetically generated site-directed mutation in the protease from glycine to valine at amino acid position number 48. NL4(I84V) represents a strain having a synthetically generated site-directed mutation in the protease from isoleucine to valine at amino acid position number 84. NL4(R8Q,M46I) represents a strain having synthetically generated site-directed mutations in the protease from arginine to glutamine at amino acid position number 8 and methionine to isoleucine at amino acid position number 46. NL4(P22-538) represents a mixture of resistant strains obtained by selection of HIV-1NL4-3 against the compound of Example 10 after 22 passages comprising protease genotypes M46I, L63P, A71V, V82F, I84V (4/10); M46I, L63P, V82F, I84V (3/10); and M46I, A71V, V82F, I84V (3/10). NL4(P37-538) represents resistant strains obtained by selection of HIV-1NL4-3 against the compound of Example 10 after 37 passages comprising protease genotype M46I, L63P, A71V, 184A. NL4(538/524) represents resistant strains obtained by selection of NL4(P22-538) against the compound of Example 5 after 24 passages comprising protease genotype M46I, L63P, A71V, 184A. NL4(538/P7-AG) represents a mixture of resistant strains obtained by selection of NL4(P22-538) against the compound of Example 12 after 7 passages comprising protease genotypes M46I, L63P, A71V, 184A; and V321, V82I. NL4(538/P24-AG) represents resistant strains obtained by selection of NL4(P22-538) against the compound of Example 12 after 24 passages comprising protease genotype M46I, L63P, A71V, 184A. NLA(P19-003) represents resistant strains obtained by selection of HIV-1^NL4-3 against the compound of Example 9 after 19 passages comprising protease genotype R8K, M46I. NL4(P34-003) represents resistant strains obtained by selection of HIV-1^NL4-3 against the compound of Example 9 after 34 passages comprising protease genotype R8K, M46I, L63P, A71V, L90M.
The viral isolate resistance results summarized in Tables 7-11 were generated according to the assay procedures described by Markowitz et al., Journal of Virology, vol. […]

## Nc1cccc(CN2C(=O)N(Cc3cccc(N)c3)[C@H](Cc3ccccc3)[C@H](O)[C@@H](O)[C@H]2Cc2ccccc2)c1 [Example 13, [4R-(4α,5α,6β,7β)]-1,3-bis[(3-aminophenyl)methyl]hexahydro-5,6-dihydroxy-4,7-bis(phenylmethyl)-2H-1,3-diazepin-2-one]
NL4(538/524)
  EC50: > 31200 nM
NL4(G48V)
  EC90: 1000 nM
NL4(I84V)
  EC90: 6250 nM
NL4(P34-003)
  EC50: 1250 nM
NL4(P22-538)
  EC50: 5000 nM
HIV-1NL4-3; Table 7, EC90, read-out: Virus Isolate (EC90 nM) NL4
  EC90: 250 nM
HIV-1NL4-3; Table 8, read-out: Virus Isolate (EC50 nM) NL4
  EC50: 250 nM
NL4(R8Q,M46I)
  EC50: 750 nM
NLA(P19-003)
  EC50: 1250 nM
NL4(538/P7-AG)
  EC50: > 31200 nM
NL4(538/P24-AG)
  EC50: > 31200 nM
NL4(P37-538)
  EC50: > 31200 nM
